Assay results as given in paper PMC2806265, “Divergence of allosteric effects of rapacuronium on binding and function of muscarinic receptors” (BMC Pharmacology, 2009).
Marks after values point to notes of the source that are not given here.

Biological target: T1, M5 muscarinic receptor (Homo sapiens, UniProt P08912)
T1 sequence (P08912 1-532): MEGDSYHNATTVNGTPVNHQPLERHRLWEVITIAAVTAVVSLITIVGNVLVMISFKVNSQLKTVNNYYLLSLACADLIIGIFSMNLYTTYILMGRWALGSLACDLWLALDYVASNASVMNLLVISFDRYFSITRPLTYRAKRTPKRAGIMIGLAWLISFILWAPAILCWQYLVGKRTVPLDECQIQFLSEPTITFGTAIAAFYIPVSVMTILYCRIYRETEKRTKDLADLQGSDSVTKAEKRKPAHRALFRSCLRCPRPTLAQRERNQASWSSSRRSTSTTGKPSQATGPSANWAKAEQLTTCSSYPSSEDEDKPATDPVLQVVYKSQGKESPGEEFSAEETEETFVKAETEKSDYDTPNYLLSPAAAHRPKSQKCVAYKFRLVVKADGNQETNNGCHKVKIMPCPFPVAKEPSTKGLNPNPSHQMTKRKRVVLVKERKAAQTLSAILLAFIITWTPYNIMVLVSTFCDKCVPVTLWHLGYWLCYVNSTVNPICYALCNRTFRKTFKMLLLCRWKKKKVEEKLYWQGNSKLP
Assay: [3H]NMS dissociation

## C=CC[N+]1([C@H]2C[C@H]3[C@@H]4CC[C@H]5C[C@H](OC(C)=O)[C@@H](N6CCCCC6)C[C@]5(C)[C@H]4CC[C@]3(C)[C@H]2OC(=O)CC)CCCCC1 [rapacuronium]
100 μM rapacuronium
  decrease in rate of [^3H]NMS dissociation: 40%
+ 100 μM rapacuronium, monophasic
  koff1 of [^3H]NMS dissociation: 0.0078 ± 0.0004* min^-1
